Literature values in patent US20020040051A1, “Solid dispersion of ipriflavone for oral administration and its manufacturing methods” (priority 2000, published 2002).
In brackets after ≈: the same amount, converted by molar mass.

Tests used:
[1] = cited from earlier work
[2] = 200 mg 3-4 times daily (600-800 mg daily), healthy adult male (18-60 yr); cited from earlier work

Question: With `CC(C)Oc1ccc2c(=O)c(-c3ccccc3)coc2c1` [compound 1, 3-phenyl-7-isopropoxy-4H-1-benzopyrane-4-one] as the molecule, how does the water solubility [1] read?
Answer: 1 µg/mL (≈ 3.57 µM)

Question: And the “day of administration on which blood concentration reaches an effective level” value [2]?
Answer: 3rd or 4th day
